Laboratory results taken from ChEMBL document CHEMBL3407446, “Effect of new hybrids based on 5,16-pregnadiene scaffold linked to an anti-inflammatory drug on the growth of a human astrocytoma cell line (U373)” (Eur J Med Chem, 2015).
Active and inactive are the calls of the source. The calls are words filed in the database; no cut-off is given here.

Columns and labels:
[1] = test system: U-373MG ATCC; assay: Antiproliferative activity against human U373MG cells assessed as effect on cell number at 1 nM to 10 uM incubated for 1 to 6 days by trypan blue dye exclusion dye based inverted microscopy; format: functional
[2] = test system: U-373MG ATCC; assay: Antiproliferative activity against human U373MG cells assessed reduction in cell number at 1 nM and 10 nM incubated for 1 to 6 days by trypan blue dye exclusion dye based inverted microscopy; format: functional
[3] = test system: U-373MG ATCC; assay: Antiproliferative activity against human U373MG cells assessed reduction in cell number at 10 uM incubated for 1 to 6 days by trypan blue dye exclusion dye based inverted microscopy; format: functional
[4] = Antiproliferative activity against human U373MG cells assessed reduction in cell number at 10 uM incubated for 6 days by trypan blue dye exclusion dye based inverted microscopy; format: functional, U-373MG ATCC; conditions: U373 MG, 144 h
[5] = test system: U-373MG ATCC; assay: Antiproliferative activity against human U373MG cells assessed reduction in cell number at 1 nM and 5 uM incubated for 1 to 6 days by trypan blue dye exclusion dye based inverted microscopy; format: functional
[6] = test system: U-373MG ATCC; assay: Induction of cell proliferation of human U373MG cells at 1 nM and 10 nM incubated for 1 to 6 days by trypan blue dye exclusion dye based inverted microscopy; format: functional
[7] = test system: U-373MG ATCC; assay: Antiproliferative activity against human U373MG cells assessed reduction in cell number at 1 nM and 10 uM incubated for 1 to 6 days by trypan blue dye exclusion dye based inverted microscopy; format: functional

CC(=O)C1=CC[C@H]2[C@@H]3CC(=O)C4=C[C@@H](OC(=O)[C@H](C)c5cccc(C(=O)c6ccccc6)c5)CC[C@]4(C)[C@H]3CC[C@]12C
Activity [1]: inactive

CC1=C(CC(=O)O)c2cc(F)ccc2/C1=C\c1ccc([S+](C)[O-])cc1 (stereo not drawn)
Activity [1]: Active | Activity [2]: Active

COc1ccc2c(c1)c(CC(=O)O[C@@H]1C=C3C(=O)C[C@@H]4[C@H](CC[C@]5(C)C(C(C)=O)=CC[C@@H]45)[C@@]3(C)CC1)c(C)n2C(=O)c1ccc(Cl)cc1
Activity [3]: Active | Activity [1]: Active | IC50 [4]: 0.016 µM

COc1ccc2cc([C@H](C)C(=O)O)ccc2c1
Activity [1]: inactive

COc1ccc2c(c1)c(CC(=O)O)c(C)n2C(=O)c1ccc(Cl)cc1
Activity [1]: inactive

CC(C(=O)O)c1cccc(C(=O)c2ccccc2)c1 (stereo not drawn)
Activity [1]: inactive

CC(=O)C1=CC[C@H]2[C@@H]3CC(=O)C4=C[C@@H](OC(=O)[C@H](C)c5ccc(CC(C)C)cc5)CC[C@]4(C)[C@H]3CC[C@]12C
Activity [3]: Active | Activity [1]: Active

CC(=O)C1=CC[C@H]2[C@@H]3CC(=O)C4=C[C@@H](O)CC[C@]4(C)[C@H]3CC[C@]12C
IC50 [4]: 3.02 µM | Activity [5]: Active

CC(C)Cc1ccc(C(C)C(=O)O)cc1 (stereo not drawn)
Activity [1]: inactive

COc1ccc2cc([C@@H](C)C(=O)O[C@@H]3C=C4C(=O)C[C@@H]5[C@H](CC[C@]6(C)C(C(C)=O)=CC[C@@H]56)[C@@]4(C)CC3)ccc2c1
Activity [1]: Active | IC50 [4]: 17.7 µM | Activity [6]: Active | Activity [7]: Active
